# Laboratory results as given in patent publication US20240376144A9, “NEUROACTIVE STEROIDS S[…] POSITION 10 WITH A CYCLIC GROUP FOR USE IN THE TREATMENT OF CNS DISORDERS” (Sage Therapeutics, Inc., priority 2018, published 2024).
# Molecular target: GABAA receptor ([35S]-TBPS binding, rat brain cortical membranes)
# Experiment: Steroid inhibition of [35S]-TBPS binding
# Conditions: 3 nM [35S]-TBPS, in the presence of 5 mM GABA
# Experimental: [^35S]-t-Butylbicyclophosphorothionate (TBPS) binding assays using rat brain cortical membranes in the presence of 5 mM GABA has been described (Gee et al., J. Pharmacol. Exp. Ther. 1987, 241, 346-353; Hawkinson et al., Mol. Pharmacol. 1994, 46, 977-985; Lewin, A. H et al., Mol. Pharmacol. 1989, 35, 189-194).
# Briefly, cortices are rapidly removed following decapitation of carbon dioxide-anesthetized Sprague-Dawley rats (200-250 g). The cortices are homogenized in 10 volumes of ice-cold 0.32 M sucrose using a glass/teflon homogenizer and centrifuged at 1500×g for 10 min at 4° C. The resultant supernatants are centrifuged at 10,000×g for 20 min at 4° C. to obtain the P2 pellets. The P2 pellets are resuspended in 200 mM NaCl/50 mM Na—K phosphate pH 7.4 buffer and centrifuged at 10,000×g for 10 min at 4° C. This washing procedure is repeated twice and the pellets are resuspended in 10 volumes of buffer. Aliquots ([…]) of the membrane suspensions are incubated with 3 nM [^35S]-TBPS and […] aliquots of test drug dissolved in dimethyl sulfoxide (DMSO) (final 0.5%) in the presence of 5 mM GABA. The incubation is brought to a final volume of 1.0 mL with buffer. Nonspecific binding is determined in the presence of […] and ranged from 15 to 25%. Following a 90 min incubation at room temp, the assays are terminated by filtration through glass fiber filters (Schleicher and Schuell No. 32) using a cell harvester (Brandel) and rinsed three times with ice-cold buffer. Filter bound radioactivity is measured by liquid scintillation spectrometry. Non-linear curve fitting of the overall data for each drug averaged for each concentration is done using Prism (GraphPad). […] The concentration of test compound producing 50% inhibition (IC50) of specific binding and the maximal extent of inhibition (Imax) are determined for the individual experiments with the same model used for the overall data and then the means±SEM.s of the individual experiments are calculated.
# Various compounds are or can be screened to determine their potential as modulators of [^35S]-TBPS binding in vitro. These assays are or can be performed in accordance with the above
# In Table 2 below, A indicates a TBPS IC50 (μM)<0.1 μM, B indicates a TBPS IC50 (μM) of 0.1 μM to <1.0 μM, C indicates a TBPS IC50 (μM) of 1 μM to <10.0 μM, D means≥10 μM.
row,Structure (SMILES),IC50 [nM]
1,"CCOC[C@@]1(O)CC[C@@]2(C3CC3)[C@H](CC[C@H]3[C@@H]4CC[C@H](C(=O)Cn5ccc(C#N)n5)[C@@]4(C)CC[C@@H]32)C1 [Compound 6, 1-(2-((3R,5R,8S,9S,10R,13S,14S,17S)-10-cyclopropyl-3-(ethoxymethyl)-3-hydroxy-13-methylhexadecahydro-1H-cyclopenta[a]phenanthren-17-yl)-2-oxoethyl)-1H-pyrazole-3-carbonitrile]",< 100
2,"COC[C@@]1(O)CC[C@@]2(C3CC3)[C@H](CC[C@H]3[C@@H]4CC[C@H](C(=O)Cn5cc(C#N)cn5)[C@@]4(C)CC[C@@H]32)C1 [Compound 8.2b, 1-(2-((3R,5R,8S,9S,10R,13S,14S,17S)-10-cyclopropyl-3-hydroxy-3-(methoxymethyl)-13-methylhexadecahydro-1H-cyclopenta[a]phenanthren-17-yl)-2-oxoethyl)-1H-pyrazole-4-carbonitrile]",< 100
3,"COC[C@@]1(O)CC[C@@]2(C3CC3)[C@H](CC[C@H]3[C@@H]4CC[C@H](C(C)=O)[C@@]4(C)CC[C@@H]32)C1 [Compound 7.4, 1-((3R,5R,8S,9S,10R,13S,14S,17S)-10-cyclopropyl-3-hydroxy-3-(methoxymethyl)-13-methylhexadecahydro-1H-cyclopenta[a]phenanthren-17-yl)ethan-1-one]",< 100
4,"CCOC[C@@]1(O)CC[C@@]2(C3CC3)[C@H](CC[C@H]3[C@@H]4CC[C@H](C(=O)Cn5cc(C#N)cn5)[C@@]4(C)CC[C@@H]32)C1 [Compound 5.2, 1-(2-((3R,5R,8S,9S,10R,13S,14S,17S)-10-cyclopropyl-3-(ethoxymethyl)-3-hydroxy-13-methylhexadecahydro-1H-cyclopenta[a]phenanthren-17-yl)-2-oxoethyl)-1H-pyrazole-4-carbonitrile]",< 100
5,"CCOC[C@@]1(O)CC[C@@]2(C3CC3)[C@H](CC[C@H]3[C@@H]4CC[C@H](C(C)=O)[C@@]4(C)CC[C@@H]32)C1 [Compound 4.12, 1-((3R,5R,8S,9S,10R,13S,14S,17S)-10-cyclopropyl-3-(ethoxymethyl)-3-hydroxy-13-methylhexadecahydro-1H-cyclopenta[a]phenanthren-17-yl)ethan-1-one]",< 100
6,"C[C@@]1(O)CC[C@@]2(C3CC3)[C@H](CC[C@H]3[C@@H]4CC[C@H](C(=O)Cn5cc(C#N)cn5)[C@@]4(C)CC[C@@H]32)C1 [Compound A11, 1-(2-((3R,5R,8S,9S,10R,13S,14S,17S)-10-cyclopropyl-3-hydroxy-3,13-dimethylhexadecahydro-1H-cyclopenta[a]phenanthren-17-yl)-2-oxoethyl)-1H-pyrazole-4-carbonitrile]",< 100
7,"CC(=O)[C@H]1CC[C@H]2[C@@H]3CC[C@@H]4C[C@](C)(O)CC[C@]4(C4CC4)[C@H]3CC[C@]12C [Compound A9, 1-((3R,5R,8S,9S,10R,13S,14S,17S)-10-cyclopropyl-3-hydroxy-3,13-dimethylhexadecahydro-1H-cyclopenta[a]phenanthren-17-yl)ethan-1-one]",< 100
